Where “and” joins values, the source holds several entries; their conditions need not be identical. Equal entries are not always repeated. Entries after “also recorded” stand apart in the source; their conditions may differ. Where two headings read alike, the source gives them in different places. Marks after values point to notes of the source that are not given here.
How the values were obtained:
[1] = target: T1, α-amylase from porcine pancreas (Sus scrofa, UniProt P00690); test: Isothermal titration calorimetry, single injection, GalG2CNP conversion; format: biochemical; details: 100 µM inhibitor, 0.95 mM substrate, 37 °C
T1 construct: A saline suspension of α-amylase from porcine pancreas; purchased Sigma Aldrich (Steinheim, Germany) Lot #SLBN9170V (catalogue number not given); host or cells: porcine pancreas (tissue-derived)
T1 sequence (P00690 16-511): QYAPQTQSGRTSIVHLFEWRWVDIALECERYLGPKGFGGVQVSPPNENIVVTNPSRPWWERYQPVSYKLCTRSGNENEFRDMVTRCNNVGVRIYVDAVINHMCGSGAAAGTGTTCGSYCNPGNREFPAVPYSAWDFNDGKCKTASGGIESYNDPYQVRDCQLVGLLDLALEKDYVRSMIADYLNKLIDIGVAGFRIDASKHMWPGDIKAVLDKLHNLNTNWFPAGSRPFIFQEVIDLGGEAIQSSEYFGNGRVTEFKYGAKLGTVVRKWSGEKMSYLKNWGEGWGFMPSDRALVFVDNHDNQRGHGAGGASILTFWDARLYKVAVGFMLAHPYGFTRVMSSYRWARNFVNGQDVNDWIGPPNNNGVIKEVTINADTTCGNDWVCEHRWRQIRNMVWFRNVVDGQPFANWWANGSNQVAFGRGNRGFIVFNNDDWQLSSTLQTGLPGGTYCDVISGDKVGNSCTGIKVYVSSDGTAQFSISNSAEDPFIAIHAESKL
Description: To evaluate the inhibitory strength of 100 µM anthocyanin-3-glucosides and black carrot anthocyanins, GalG2CNP conversion to CNP was monitored by the released heat. According to the previous study, ITC measurements were carried out in a single injection experiment set-up on a MICROCALTM PEAQ-ITC calorimeter (S/N MAL1188053, Malvern Panalytical Almelo, Netherlands). Following an equilibration time of 10 min, 1 µL α-amylase (1 µM in 50 mM MES^+ buffer) was added to 0.95 mM of the substrate with or without 100 µM of the phenolic inhibitor in the cell (Vcell = 0.207 mL). The temperature was maintained at 37 °C and the sample was stirred at 750 rpm throughout. The feedback/gain mode was set to high. The resulting heat profile was transformed and the conversion rate was plotted against the substrate concentration [S] by an origin routine template provided by Malvern® for Origin version 7.

[2] = target: T1, α-amylase from porcine pancreas; details: cited from earlier work; for IC50: read-out: IC50 (Cheng−Prussoff, Equation (9)); for Kmapp / vmaxapp: Michaelis Menten fit
human salivary α-amylase = target: human salivary α-amylase; set-up: method as in PMID 26471548; details: cited from earlier work
[3] = target: T1, α-amylase from porcine pancreas; test: α-amylase enzyme activity assay, GalG2CNP conversion, UV/Vis detection of CNP at 405 nm; format: biochemical; details: for conversion rate (v0) / inhibitory effect in UV/Vis assay: black carrot anthocyanins, 12.5−50 µM, artifact, simulated accelerated conversion; for Ki: global fit, 12.5, 25, 50 µM, UV/Vis artifact
Description: The enzyme activity assay, […], was established by Homoki and co-workers and already used by the authors to evaluate the inhibitory strength of different phenolic structures. To enable the evaluation of the result obtained in the present study compared to the non-anthocyanin phenolics investigated previously, the assay conditions were identical. In short, to 12 different GalG2CNP concentrations ([S] = 0−2000 µM) in MES^+ buffer, inhibitor [I] and 50 µL enzyme solution (c = 1.51 units/~100 pM, on the basis of supplier information) were mixed in a microtiter plate (Greiner BioOne, Frickenhausen, Germany; transparent, F-bottom). For blanks, the enzyme solution was substituted with MES^+ buffer. The final volume per well was 250 µL. To quantify the reaction product, a linear calibration with eight different CNP concentrations in the range of 0−35 µM was performed for each plate. Dilutions of the anthocyanin stock solutions (0.1% HCl) were equilibrated at pH 6.1 for one hour. Final inhibitor concentrations were limited due to its strong absorption at 405 nm to 12.5, 25, and 50 µM. For each anthocyanin structure, the assay was conducted on two to three different days with freshly prepared stocks of substrate, enzyme, and inhibitor.
In addition to the Michaelis Menten constant (Km) and the maximal conversion rate (vmax) values (Table S1), inhibition constants (Kic, Kiu) were calculated by fitting the data by two approaches: (i) According to the mixed inhibition equation (Equation (4)) or competitive inhibition equation (Equation (5)), applying an optimal global fit containing data from all inhibitor concentrations including the control ([I] = 0 µM); and (ii) by an independent fit according to the Michaelis Menten equation (Equation (6)), providing the apparent values Km^app and Vmax^app (Table S2) for each inhibitor concentration, which were then used to calculate the inhibition constants (Equations (7) and (8)). (4) v0= vmax/Km/[S] · (1+[I]/Kic)+(1+[I]/Kiu), (5) v0=vmax/Km/[S] · ( 1+[I]/Kic)+1, (6) v0=vmax · [S]/Km+[S], (7) Kic=vmax^app/Km^app · [I]/vmax/Km−vmax^app/Km^app, (8) Kiu=vmax^app · [I]/vmax− vmax^app.
The IC50 values of the different anthocyanins were derived from the inhibition constants for different substrate concentrations by the Cheng−Prusoff equation (Equation (9)). (9) IC50=(Km+[S])/Km/Kic+[S]/Kiu.
• KM: Michaelis Menten constant (µM) • vmax: Maximal conversion rate of the uninhibited reaction (µM/min) • v0: Observed conversion rate at given substrate and inhibitor concentration (µM/min) • [S]: Substrate concentration • [I]: Inhibitor concentration • Kic: Inhibitor constant, reflecting the competitive inhibition in the equation (µM) • Kiu: Inhibitor constant, reflecting the uncompetitive inhibition in the equation (µM) • vmax^app: Calculated maximal conversion rate, when the Michaelis Menten equation is used on an inhibited curve (µM/min) • Km^app: Calculated Michaelis Menten constant, when the Michaelis Menten equation is used on an inhibited curve (µM) • IC50: Half maximal inhibitory concentration (inhibitor concentration needed to achieve 50% inhibition; it is dependent on the substrate concentration) (µM)
For data analyses and calculations, Origin 2018b (OriginLab, software extension Enzyme Kinetics) was used. The Levenberg−Marquardt algorithm procedure was chosen for iteration. All assays were performed in two independent replicates at different dates. Values are expressed in arithmetic means ± average deviation (AD). The statistical significance and differences between groups were analyzed by one-way analysis of variance (ANOVA), followed by Tukey’s test. Differences were considered significant when p < 0.05. Data were processed using Microsoft Excel® (2010).

[4] = target: porcine pancreatic α-amylase; set-up: method as in doi:10.1016/j.jff.2015.11.042; details: cited from earlier work

Q: With `COc1cc(-c2[o+]c3cc(O)cc(O)c3cc2O[C@@H]2O[C@H](CO)[C@@H](O)[C@H](O)[C@H]2O)cc(OC)c1O` [Mlv-glc, malvidin-3-glucoside] as the molecule, how does the “inhibitory strength by ITC (thermogram, Michaelis Menten plot)” value (shortened to “inhibitory strength by ITC”) [1] read?
A: Mlv-3-glc > Cyd-3-glc > Dpd-3-glc~Peo-3-glc

Q: And the Kic/Kiu ([2]; (i) global fit, Equation (4))?
A: 0.32 ± 0.07 ^a

Q: What about the Ki ([2]; (i) global fit, mixed inhibition Equation (4), read-out: Kic) of the same molecule?
A: 44 ± 4 µM

Q: What about the Ki ([2]; (i) global fit, mixed inhibition Equation (4), read-out: Kiu) of the same molecule?
A: 143 ± 44 µM

Q: And the IC50 ([2]; (i) global fit, [S] 10 µM)?
A: 46 ± 4 µM

Q: What about the IC50 ([2]; (i) global fit, [S] 100 µM) of the same molecule?
A: 58 ± 7 µM

Q: What about the IC50 ([2]; (i) global fit, [S] 10^3 µM) of the same molecule?
A: 106 ± 24 µM

Q: And the IC50 ([2]; (i) global fit, [S] 10^6 µM)?
A: 143 ± 44 µM

Q: What about the Ki ([2]; (ii) independent Michaelis Menten fit, Equation (7), read-out: Kic) of the same molecule?
A: 69 ± 17 µM

Q: What about the Ki ([2]; (ii) independent Michaelis Menten fit, Equation (8), read-out: Kiu) of the same molecule?
A: 147 ± 50 µM

Q: What about the Kic/Kiu ([2]; (ii) independent fit, Equations (7) and (8)) of the same molecule?
A: 0.58 ± 0.35 ^a

Q: What about the IC50 ([2]; (ii) independent fit, [S] 10 µM) of the same molecule?
A: 71 ± 16 µM

Q: What about the IC50 ([2]; (ii) independent fit, [S] 100 µM) of the same molecule?
A: 83 ± 10 µM

Q: And the IC50 ([2]; (ii) independent fit, [S] 10^3 µM)?
A: 121 ± 21 µM

Q: And the IC50 ([2]; (ii) independent fit, [S] 10^6 µM)?
A: 147 ± 50 µM

Q: And the Kmapp ([2]; inhibitor c 25 µM)?
A: 216 ± 3 µM

Q: What about the vmaxapp ([2]; inhibitor c 25 µM) of the same molecule?
A: 0.67 ± 0.16 µM/min

Q: And the Kmapp ([2]; inhibitor c 50 µM)?
A: 337 ± 4 µM

Q: What about the vmaxapp ([2]; inhibitor c 50 µM) of the same molecule?
A: 0.60 ± 0.20 µM/min

Q: And the Kmapp ([2]; inhibitor c 12,5 µM)?
A: 194 ± 22 µM

Q: What about the vmaxapp ([2]; inhibitor c 12,5 µM) of the same molecule?
A: 0.74 ± 0.24 µM/min

Q: And the Ki ([2]; from apparent values, inhibitor c 25 µM, read-out: Kic)?
A: 74 ± 1 µM

Q: And the Ki ([2]; from apparent values, inhibitor c 25 µM, read-out: Kiu)?
A: 150 ± 14 µM

Q: What about the Ki ([2]; from apparent values, inhibitor c 50 µM, read-out: Kic) of the same molecule?
A: 36 ± 6 µM

Q: What about the Ki ([2]; from apparent values, inhibitor c 50 µM, read-out: Kiu) of the same molecule?
A: 159 ± 66 µM

Q: And the Ki ([2]; from apparent values, inhibitor c 12,5 µM, read-out: Kic)?
A: 139 µM

Q: And the Ki ([2]; from apparent values, inhibitor c 12,5 µM, read-out: Kiu)?
A: 84 µM

Q: And the Ki ([2]; mean over inhibitor c 12,5, 25, 50 µM (Supplementary 2), read-out: Kic mean ± SD)?
A: 83 ± 52 µM

Q: What about the Ki ([2]; mean over inhibitor c 12,5, 25, 50 µM (Supplementary 2), read-out: Kiu mean ± SD) of the same molecule?
A: 131 ± 41 µM

Q: What about the IC50 (human salivary α-amylase) of the same molecule?
A: 675 ± 73 µM

Q: What about the inhibition type (human salivary α-amylase) of the same molecule?
A: competitive inhibition type

Q: For `COc1cc(/C=C/C(=O)OC[C@H]2O[C@@H](OC[C@H]3O[C@@H](Oc4cc5c(O)cc(O)cc5[o+]c4-c4ccc(O)c(O)c4)[C@H](O[C@@H]4OC[C@@H](O)[C@H](O)[C@H]4O)[C@@H](O)[C@H]3O)[C@H](O)[C@@H](O)[C@@H]2O)ccc1O` [BC 4], which “conversion rate (v0) / inhibitory effect in UV/Vis assay” value [3] is on record?
A: inhibits best

Q: What about the inhibition type ([3]; from fits and Lineweaver−Burk / Hanes plots) of the same molecule?
A: complete competitive inhibition; also recorded: predominantly competitive inhibition

Q: And the Ki ([3]; Competitive Inhibition (Equation (5)), rough estimation, read-out: Kic)?
A: ~20 µM and 20 µM

Q: What about the Ki ([3]; Mixed Inhibition (Equation (4)), read-out: Kiu) of the same molecule?
A: 98 ± 139 µM

Q: And the Ki ([3]; Mixed Inhibition (Equation (4)), rough estimation, read-out: Kic)?
A: 23 ± 3 µM

Q: And the “inhibitory strength by ITC” value [1]?
A: significantly stronger inhibition of BC 4 compared to the non-acylated BC 2 and Cyd-3-glc

Q: Which “conversion rate (v0) / inhibitory effect in UV/Vis assay” value [3] does the source give for `OC[C@H]1O[C@@H](Oc2cc3c(O)cc(O)cc3[o+]c2-c2ccc(O)c(O)c2)[C@H](O[C@@H]2OC[C@@H](O)[C@H](O)[C@H]2O)[C@@H](O)[C@H]1O` [BC 2, cyanidin-3-xylosyl-galactoside] here?
A: minor inhibitory effect

Q: And the “inhibitory strength by ITC” value [1]?
A: no significant difference

Q: For `C[C@@H]1O[C@@H](OC[C@H]2O[C@@H](Oc3cc4c(O)cc(O)cc4[o+]c3-c3ccc(O)c(O)c3)[C@H](O)[C@@H](O)[C@@H]2O)[C@H](O)[C@H](O)[C@H]1O` [Cyd-3-rut], which IC50 (human salivary α-amylase) is on record?
A: 200 ± 24 µM

Q: What about the IC50 [4] of the same molecule?
A: 31 ± 7 µM

Reference: PMC7142633, “Impact of B-Ring Substitution and Acylation with Hydroxy Cinnamic Acids on the Inhibition of Porcine α-Amylase by Anthocyanin-3-Glycosides” (Foods, 2020)
